The term logP denotes a log measure of how a compound divides between an organic and an aqueous phase. Read a high logP as a more lipophilic compound.

The nature of this data set: method code G-GLC, from DOI: 10.1021/es00162a015, PMID: 19995068.
`Clc1c(Cl)c(Cl)c2c(c1Cl)Oc1ccccc1O2` yielded a lipophilicity (logP) of 6.2. In the case of `Brc1ccc(-c2ccccc2)cc1`, the lipophilicity (logP) was 4.96.

For the molecule `Brc1cccc(-c2ccccc2)c1`, the lipophilicity (logP) stood at 4.85. The logP values of the last two molecules are within 0.2 log units of each other. To `Cc1ccc(-c2ccccc2)cc1` belongs 4.63; to `Brc1ccccc1-c1ccccc1`, 4.59; to `Clc1ccc2c(c1)Oc1ccccc1O2`, 4.94. `Clc1ccc2oc3ccc(Cl)cc3c2c1` gave a logP of 5.44. As for `Brc1c(Br)c(Br)c(-c2c(Br)c(Br)c(Br)c(Br)c2Br)c(Br)c1Br`, the lipophilicity (logP) is 8.58.

The molecule `Brc1ccc(-c2ccc(Br)cc2)cc1` came in with a log partition coefficient (logP) of 5.72. To `Brc1ccc(Br)c(-c2cc(Br)c(Br)cc2Br)c1` belongs 7.1; to `Cc1ccc(-c2ccc(C)cc2)cc1`, 5.09.

Values taken from the SangsterLogP compilation.
